In experiment [1] the test system is SMMC-7721. The experiment in a line: Cytotoxicity against human SMMC7721 cells after 48 hrs by MTT assay. As to conditions: SMMC-7721, 48 h. A general note: Tetrazolium dyes change colour on reduction, which living cells bring about.
The test system of experiment [2] is HL-60. The experiment can be described thus: Cytotoxicity against human HL60 cells after 48 hrs by MTT assay. As to conditions: HL-60, 48 h.
Experiment [3] relates to SW480. The experiment in a line: Cytotoxicity against human SW480 cells after 48 hrs by MTT assay. As to conditions: SW480, 48 h.
Experiment [4] has as its system A549. The experiment can be described thus: Cytotoxicity against human A549 cells after 48 hrs by MTT assay. The note with it: A549, 48 h.
Experiment [5] relates to MCF7. The experiment can be described thus: Cytotoxicity against human MCF7 cells after 48 hrs by MTT assay. As to conditions: MCF7, 48 h.

One may read the IC50 as the concentration that gives 50% inhibition. A higher IC50 goes with weaker potency. For the compound `CCC(C)C(=O)[C@@]12C(=O)C3=C(OC(C)(C)C=C3)[C@@](CC=C(C)C)(C[C@H](CC=C(C)C)[C@@]1(C)CCC=C(C)C)C2=O` (stereo partly drawn), the IC50 in experiment [1], in experiment [2], in experiment [3], in experiment [4] and in experiment [5] was over 20 µM throughout.

Consider `CC(C)=CCC[C@]1(C)[C@@H](CC=C(C)C)C[C@]23C[C@@H](C(C)(C)O)OC2=C(C[C@@H]2OC(C)(C)[C@@H](CO)C2(C)C)C(=O)[C@@]1(C(=O)c1ccccc1)C3=O`, for which the IC50 in experiment [1] is 8.2 µM; in experiment [2] it was 12.6 µM; in experiment [3], 9.2 µM; in experiment [4], 17.9 µM; in experiment [5], over 20 µM.

In the case of `CCC(C)C(=O)[C@@]12C(=O)C(CC=C(C)C)=C3O[C@@H](C(C)(C)O)C[C@]3(C[C@H](CC=C(C)C)[C@@]1(C)CCC=C(C)C)C2=O` (stereo partly drawn), the IC50 in experiment [1], in experiment [2], in experiment [3], in experiment [4] and in experiment [5] was over 20 µM in each case.

For the compound `CC(C)=CCC[C@]1(C)[C@@H](CC=C(C)C)C[C@]23C[C@@H](C(C)(C)O)OC2=C(C[C@@H]2OC(C)(C)[C@@H](CO)C2(C)C)C(=O)[C@@]1(C(=O)C(C)C)C3=O`, the IC50 is over 20 µM in experiment [1]; 5.8 µM in experiment [2]; 15.6 µM in experiment [3]; 11.3 µM in experiment [4]; 10.2 µM in experiment [5].

As for `CC(C)=CCC[C@]1(C)[C@@H](CC=C(C)C)C[C@]23C[C@@H](C(C)(C)O)OC2=C(C[C@H]2OC(C)(C)[C@H](CO)C2(C)C)C(=O)[C@@]1(C(=O)C(C)C)C3=O`, the concentration for half-maximal inhibition (IC50) stood at 9.5 µM in experiment [1]; 8.8 µM in experiment [2]; 7.4 µM in experiment [3]; 5.6 µM in experiment [4]; 9.3 µM in experiment [5].

Turning to `CC(C)=CCC[C@]1(C)[C@@H](CC=C(C)C)C[C@]23C[C@H](C(C)(C)O)OC2=C(CC=C(C)C)C(=O)[C@@]1(C(=O)C(C)C)C3=O`, the half-maximal inhibitory concentration (IC50) in experiment [1], in experiment [2], in experiment [3], in experiment [4] and in experiment [5] was over 20 µM in each case.

With `CC(C)=CCC[C@]1(C)[C@@H](CC=C(C)C)C[C@]23C[C@@H](C(C)C)OC2=C(CC=C(C)C)C(=O)[C@@]1(C(=O)c1ccccc1)C3=O`, the IC50 in experiment [1], in experiment [2], in experiment [3], in experiment [4] and in experiment [5] was over 20 µM in each case.

Regarding `CC(C)=CCC[C@]1(C)[C@@H](CC=C(C)C)C[C@]23C[C@@H](C(C)C)OC2=C(CC=C(C)C)C(=O)[C@@]1(C(=O)C(C)C)C3=O`, the IC50 in experiment [1], in experiment [2], in experiment [3], in experiment [4] and in experiment [5] was over 20 µM throughout.

Consider `CC(=O)O[C@H]1C(=O)[C@@]2(C)[C@H]([C@H](OC(=O)c3ccccc3)[C@]3(O)C[C@H](OC(=O)[C@H](O)[C@@H](NC(=O)c4ccccc4)c4ccccc4)C(C)=C1C3(C)C)[C@]1(OC(C)=O)CO[C@@H]1C[C@@H]2O` [PACLITAXEL], for which the IC50 in experiment [1], in experiment [2] and in experiment [5] was under 0.008 µM each time.

(Values after ChEMBL document CHEMBL2417480, “Bioactive polyprenylated acylphloroglucinol derivatives from Hypericum cohaerens” (J Nat Prod, 2013).)
